Laboratory results from article PMC10943645 (Current Research in Toxicology, 2024).

Experiments:
DNA = assay: Identification of B; type: in vivo, PIRC rats; settings: colon and liver tissues
Tissue disposition of B = type: in vivo, PIRC rats; settings: for proportion of reactive metabolite among B(a)P metabolite concentrations: colon sample, 50 µg B(a)P/kg bw (Fig. 5D)
Caco-2 cells = settings: Western diet; ref Faria et al. (2020); cited from earlier work
SULT1A1 [1] = assay: Western blot of SULT1A1 protein in colon; type: in vivo, PIRC rats
GST [2] = assay: Western blot of GST protein in liver; type: in vivo, PIRC rats
malondialdehyde (MDA) [3] = assay: Lipid peroxidation; type: in vivo, PIRC rats; settings: among the treatment groups, except in the case of 100 µg/kg
GST [4] = assay: Western blot of GST protein in colon; type: in vivo, PIRC rats; settings: 25 µg B(a)P/kg bw + RD, among all the groups
SULT1A1 [5] = assay: Western blot of SULT1A1 protein in liver; type: in vivo, PIRC rats
malondialdehyde (MDA) [6] = assay: Lipid peroxidation; type: in vivo, PIRC rats; settings: B(a)P + WD

O[C@@H]1[C@@H]2O[C@@H]2c2c(cc3ccc4cccc5ccc2c3c45)[C@H]1O [BPDE, 7β,8α-dihydroxy-9α,10α-epoxy-7,8,9,10-tetrahydrobenzo[a]pyrene]
contribution of B(a)P metabolite to DNA adduct formation (DNA): major adducts

O=C1C=Cc2ccc3c4c(ccc1c24)C(=O)c1ccccc1-3 [B(a)P-3,6-dione]
contribution of B(a)P metabolite to DNA adduct formation (DNA): not found to contribute to adduct formation | proportion of reactive metabolite among B(a)P metabolite concentrations (Tissue disposition of B): high

O=c1c2ccc3cccc4c(=O)cc(c5ccccc15)-c2c34 [B(a)P-6,12-dione]
contribution of B(a)P metabolite to DNA adduct formation (DNA): not found to contribute to adduct formation | proportion of reactive metabolite among B(a)P metabolite concentrations (Tissue disposition of B): high

Oc1ccc2ccc3c4ccccc4cc4ccc1c2c43 [3-OH-B(a)P]
contribution of B(a)P metabolite to DNA adduct formation (DNA): not found to contribute to adduct formation

c1ccc2c(c1)cc1ccc3cccc4ccc2c1c34 [B(a)P, Benzo(a)pyrene]
bioaccessibility of B(a)P with WD (Caco-2 cells): higher bioaccessibility | SULT1A1 protein expression in colon (SULT1A1 [1]; 25 µg B(a)P/kg bw + RD and WD): negligible | SULT1A1 protein expression in colon (SULT1A1 [1]; 50 µg B(a)P/kg bw, both diets): increased | SULT1A1 protein expression in colon, WD compared to RD (SULT1A1 [1]; 100 µg B(a)P/kg bw + WD vs RD counterpart): significantly increased | GST protein expression in liver, RD or WD (GST [2]; 100 µg B(a)P/kg bw, RD or WD): Very little difference | GST protein expression in liver, WD compared to counterparts (GST [2]; 25 and 50 µg B(a)P/kg bw + WD): significant increase | oxidative stress (MDA) in serum (malondialdehyde (MDA) [3]): no difference | GST protein expression in colon (GST [4]): largest increase | SULT1A1 protein expression in liver, WD compared to RD (SULT1A1 [5]; 25 µg B(a)P/kg bw + WD vs RD): increased expression | SULT1A1 protein expression in liver, RD or WD (SULT1A1 [5]; 50 and 100 µg B(a)P/kg bw + RD or WD): no difference | B(a)P metabolite concentrations versus dose (Tissue disposition of B; plasma, liver, colon, 25, 50, 100 µg B(a)P/kg bw): dose-dependent | MDA production in colon (malondialdehyde (MDA) [6]): increased

Oc1ccc2cc3ccc4cccc5ccc(c2c1)c3c45 [9-OH–B(a)P]
contribution of B(a)P metabolite to DNA adduct formation (DNA): not found to contribute to adduct formation
